# Measured values as given in US20260021082A1, “EZH2 INHIBITION THERAPIES FOR THE TREATMENT OF AT-RICH INTERACTIVE DOMAIN-CONTAINING PROTEIN 1A (ARID1A) MUTATED CANCERS” (Constellation Pharmaceuticals, Inc., priority 2022, published 2026).
# Read-outs that look alike come from different tables or passages of the source.
# Assays:
# Format in all cases: cell-based
# [1] = system: H3K27me3 levels in 639V cells; assay: H3K27me3 level, 3-day MSD ELISA; details: Homo sapiens, H3K27me3, 72 hours
# Procedure: (§1) H3K27me3 and total H3 expression levels in cells and tumor tissues were analyzed by Meso Scale Discovery (MSD) ELISA. For assays with cultured cell lines, trypsinzed cells were counted using a Countess® cell counter (Life Technologies) and plated in 100 μL of cell culture medium onto 96-well tissue culture treated plates containing Compound 1 (9 concentrations in a series of 3-fold dilutions) and incubated at 37° C. in 5% CO2 for 24-96 hours, depending on the assay.
# (§2) As with EZH2 inhibitors in other cancer cell line contexts, the cell viability effects in Compound 1 sensitive bladder cancer cell lines are time-dependent.
# [2] = system: H3K27me3 levels in BFTC905 cells; assay: H3K27me3 level, 3-day MSD ELISA; details: Homo sapiens, BFTC-905, BFTC905, H3K27me3, 72 hours
# Procedure: as §1, §2
# [3] = system: H3K27me3 levels in HT1376 cells; assay: H3K27me3 level, 3-day MSD ELISA; details: Homo sapiens, HT-1376, HT1376, H3K27me3, 72 hours
# Procedure: as §1, §2
# [4] = system: H3K27me3 levels in KU1919 cells; assay: H3K27me3 level, 3-day MSD ELISA; details: Homo sapiens, KU-19-19, KU1919, H3K27me3, 72 hours
# Procedure: as §1, §2
# [5] = system: H3K27me3 levels in VMCUB1 cells; assay: H3K27me3 level, 3-day MSD ELISA; details: Homo sapiens, VM-CUB-1, VMCUB1, H3K27me3, 72 hours
# Procedure: as §1, §2
# [6] = system: HT1376 cells; assay: western blot of whole cell lysates; details: HT1376, 250 nM for 4 days
# Procedure: Snap-frozen pellets of cultured cells were thawed on ice and lysed on ice for 20-30 minutes with RIPA-500 buffer (1X RIPA buffer solution (Boston BioProducts #BP-116T), […], 0.1% Benzonase, 1X cOmplete EDTA-free protease inhibitor (Roche #11873580001); NaCl adjusted to […] after initial lysis). Lysates were centrifuged at 13,000 rpm for 15 minutes at 4° C. Supernatants were transferred to new microfuge tubes and protein concentration was determined by BCA method with absorbance read at […]. Protein lysates were diluted if needed to the same concentration and a volume to 6× SDS Sample buffer+β-mercaptoethanol (Boston BioProducts #BP-111NR or #BP-605) to give 1X final concentration. 12-40 μg of total protein was loaded on SDS-PAGE gels (NuPAGE™ 4-12% Bis-Tris Midi Protein Gels, Invitrogen #WG1402BOX) and run with 1X NuPAGE™ MES SDS Running Buffer (Invitrogen #NP0002-02). Proteins were transferred to PVDF membrane (Immobilon-P, Millipore Sigma #IPVH00010), blocked with 1XTBST with 2% non-fat dry milk (20X Tris Buffered Saline with Tween®20, Boston BioProducts #BB-180X), and bound with antibodies for western blot analysis.
# To study molecular changes underpinning the increased potential for EZH2 dependency in the context of ARID1A mutations, we expressed wildtype ARID1A in the ARID1A mutant cell model HT1376 using a doxycycline-inducible system. […] While EZH1 levels increased with Compound 1 treatment, no change in EZH2 was seen under any of the tested conditions (FIG. 9). […] We next sought to explore changes in chromatin binding profiles and gene expression in HT1376 cells following re-expression of ARID1A and/or Compound 1 treatment. We identified three clusters of active enhancers, as determined by positivity for histone H3 lysine 27 acetylation (H3K27ac), with distinct behaviors in response to ARID1A or Compound 1. […] Clusters 2 and 3 (to a lesser extent) were primarily defined by increase both ARID1A and SMARCA4 binding in response to ARID1A re-expression. […]
# [7] = average of replicates, read-out: EC50 (nM) 3-day MSD Avg
# [8] = replicate 1, read-out: EC50 (nM) 3-day MSD Replicate 1
# [9] = replicate 2, read-out: EC50 (nM) 3-day MSD Replicate 2
# [10] = replicate 3, read-out: EC50 (nM) 3-day MSD Replicate 3
# [11] = replicate 4, read-out: EC50 (nM) 3-day MSD Replicate 4
smiles,measurement,setting,value
"COC1CN([C@H]2CC[C@H]([C@@]3(C)Oc4c(Cl)cc(C(=O)NCc5c(SC)cc(C)[nH]c5=O)c(C)c4O3)CC2)C1 [Compound 1, (R)-7-chloro-2-((1r,4R)-4-(3-methoxyazetidin-1-yl)cyclohexyl)-2,4-dimethyl-N-((6-methyl-4-(methylthio)-2-oxo-1,2-dihydropyridin-3-yl)methyl)benzo[d][1,3]dioxole-5-carboxamide]",EC50,[1]; [7],0.076 nM
same,EC50,[1]; [8],0.065 nM
same,EC50,[1]; [9],0.086 nM
same,EC50,[2]; [7],0.098 nM
same,EC50,[2]; [8],0.1 nM
same,EC50,[2]; [9],0.096 nM
same,EC50,[3]; [7],0.151 nM
same,EC50,[3]; [8],0.148 nM
same,EC50,[3]; [9],0.112 nM
same,EC50,[3]; [10],0.127 nM
same,EC50,[3]; [11],0.217 nM
same,EC50,[4]; [7],0.434 nM
same,EC50,[4]; [8],0.533 nM
same,EC50,[4]; [9],0.405 nM
same,EC50,[4]; [10],0.414 nM
same,EC50,[4]; [11],0.383 nM
same,EC50,[5]; [7],0.149 nM
same,EC50,[5]; [8],0.117 nM
same,EC50,[5]; [9],0.18 nM
same,EZH1 levels by western blot,[6],increased
same,EZH2 levels by western blot,[6],no change
same,H3K27me3 levels by western blot,[6]; with or without ectopic ARID1A expression,Significant reduction
